Measured values from patent publication US6737382B1, “Insecticidal aminothiazole derivatives” (Nippon Soda Co. Ltd., priority 2002, dated 2004).

Experiments:
Pseudaletia separata = experiment: whole plant or invertebrate; assay type: in vivo; details: Mythimna separata, in Zea mays, foliar, 120 h
Procedure: Efficacy Against Pseudaletia separata Walker (Ps; Rice Armyworm)
A piece of Maize leaf (ca. 7×1.5 cm) was dipped in the chemical solution at 125 ppm for 30 sec and air-dried. The leaf was placed in a glass petri dish (9 cm diameter) and five second-instar larvae of Pseudaletia separata were introduced into the petri dish. Five days after the treatment, the number of survival larvae was counted and the mortality was calculated by Abbott's formula. Each test was duplicated.

Plutella xylostella = experiment: whole plant or invertebrate; assay type: in vivo; details: in Brassica oleracea, 72 h
From the text: Efficacy Against Plutella xylostella Linne (Px; Diamondback Moth)
The chemical solution at 125 ppm was sprayed on a Cabbage seedling by a glass nozzle using an air compressor. After airdried, a small leaf (ca. 5 cm diameter) was detached from the treated plant and placed in a glass petri dish (ca. 9 cm diameter). Five second-instar larvae of Plutella xylostella were introduced into the petri dish. Three days after the treatment, the number of survival larvae was counted and the mortality was calculated by Abbott's formula. Each test was duplicated.

Tetranychus urticae = experiment: Efficacy against Tetranychus urticae (two-spotted spider mites), spray on kidney-bean seedling; details: in vivo
Procedure: Efficacy Against Tetranychus urticae (Tu; Two-spotted Spider Mites
Fifteen adult females were inoculated on a potted Kidney-bean seedling. On the next day, the chemical solution at different concentration was sprayed on the Kidney-bean seedling by a glass nozzle using an air compressor. After air-dried the Kidney-bean pot was maintained in a room kept at 25° C. and 65%RH.
On three days after treatment, the numbers of dead and alive mites were counted and mortality was calculated by Abbott's formula.
Each test was duplicated. [formula]

Row | Structure (SMILES) | mortality at 125 ppm (Pseudaletia separata) [%] | melting point [°C] | other results
1 | O=C(Nc1nc(C(F)(F)F)c(-c2ccc(F)cc2)s1)c1ccc(C(F)(F)F)cc1 [Compound 81, N-(5-(4-Fluorophenyl)-4-trifluoromethylthiazol-2-yl)-4-trifluoromethylbenzamide] | 100 |  | 
2 | O=C(Nc1nc(C(F)(F)F)c(I)s1)c1cc(C(F)(F)F)cc(C(F)(F)F)c1 [Compound 102, N-(5-Iodo-4-trifluoromethylthiazol-2-yl)-3,5-bis-trifluoromethylbenzamide] |  | 172 to 173 | 
3 | O=C(Nc1nc(C(F)(F)F)c(I)s1)c1c(Cl)cccc1Cl [Compound 44, N-(5-Iodo-4-trifluoromethylthiazol-2-yl)-2,6-dichloro-benzamide] | 100 |  | 
4 | O=C(Nc1nc(C(F)(F)F)c(Cl)s1)c1ccc(Cl)c([N+](=O)[O-])c1 [Compound 80, N-(5-Chloro-4-trifluoromethylthiazol-2-yl)-4-chloro-3-nitrobenzamide] |  | 183 to 184 | 
5 | O=C(Nc1nc(C(F)(F)F)c(I)s1)c1ccc(C(F)(F)F)cc1 [Compound 45, N-(5-Iodo-4-trifluoromethylthiazol-2-yl)-4-trifluoromethyl-benzamide] | 100 |  | mortality at 125 ppm (Plutella xylostella): 100%
6 | N#CSc1sc(NC(=O)c2cccc(C(F)(F)F)c2)nc1C(F)(F)F [Compound 131, N-(5-thiocyanato-4-trifluoromethylthiazol-2-yl)-3-trifluoromethylbenzamide] |  | 167 to 168 | 
7 | O=C(Nc1nc(C(F)(F)F)c(Br)s1)c1cccs1 [Compound 34, N-(5-Bromo-4-trifluoromethylthiazol-2-yl)thiophene-2-carboxamide] |  | 184 to 185 | 
8 | O=C(Nc1nc(C(F)(F)F)c(Br)s1)c1ccc(Cl)c(Cl)c1 [Compound 19, N-(5-Bromo-4-trifluoromethylthiazol-2-yl)-3,4-dicloro-benzamide] |  |  | mortality (Tetranychus urticae): 100%
